Literature values as cited in paper PMC4744661 (Diabetes/Metabolism Research and Reviews, 2015).

Test system: gastric emptying
Conditions: healthy volunteers and patients with T2DM

Q: With exenatide [exenatide BID] as the substance, how does the “effect on gastric emptying / acetaminophen exposure” value read?
A: substantially slowed gastric emptying

Q: With “liraglutide (HAEGTFTSDVSSYLEGQAAKEFIAWLVRGRG; chains of the INN, looked up)” as the substance, how does the “effect on gastric emptying / acetaminophen exposure” value read?
A: equivalent effects on acetaminophen exposure
